Results as given in article PMC6200136 (Journal of medicinal chemistry, 2017).

Assays:
phospho-CDK1 (Tyr15) = test: Immunoblotting of phospho-CDK1; type: cell-based, human; conditions: synchronized HEK293T and MDA-MB-231 cells, 6 h drug treatment
[1] = test system: HEK293T, MM1.S, and MDA-MB-231 cells; test: Cell viability across HEK293T, MM1.S and MDA-MB-231; type: cell-based; conditions: Homo sapiens, 72 h, read-out: cell viability IC50 values (range over cell lines)
[2] = test system: phosphorylated TCTP (PLK1 substrate); test: Immunoblotting of phospho-TCTP; type: cell-based, human; conditions: synchronized HEK293T and MDA-MB-231 cells, 6 h drug treatment
Myt1-KD = target: T1, Myt1-KD (Homo sapiens, UniProt Q99640); test: DSF thermal shift, Myt1 kinase domain; type: binding; conditions: DSF screen, 100 μM
T1 sequence (Q99640 75-361): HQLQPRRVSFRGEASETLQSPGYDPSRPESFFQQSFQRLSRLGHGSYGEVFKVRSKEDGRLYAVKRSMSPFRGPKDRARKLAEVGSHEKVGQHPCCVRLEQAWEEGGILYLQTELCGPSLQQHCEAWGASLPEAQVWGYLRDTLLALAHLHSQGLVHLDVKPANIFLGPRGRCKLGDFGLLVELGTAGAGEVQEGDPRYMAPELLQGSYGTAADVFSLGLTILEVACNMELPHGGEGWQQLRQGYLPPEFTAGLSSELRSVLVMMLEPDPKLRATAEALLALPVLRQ

CC[C@@H]1C(=O)N(C)c2cnc(Nc3ccc(C(=O)NC4CCN(C)CC4)cc3OC)nc2N1C1CCCC1 [BI-2536]
effect on CDK1 phosphorylation (phospho-CDK1 (Tyr15)): no effect

C=CCn1c(=O)c2cnc(Nc3ccc(N4CCN(C)CC4)cc3)nc2n1-c1cccc(C(C)(C)O)n1 [MK-1775]
IC50 [1]: 290 to 310 nM | reduction of phosphorylation levels, times less effective than BI-2536 and 1 [2]: about 10 times | effect on CDK1 phosphorylation (phospho-CDK1 (Tyr15)): reducing the levels of phosphorylated CDK1

C[C@@H](Oc1cc(-n2cnc3ccc(CN4CCN(C)CC4)cc32)sc1C(N)=O)c1ccccc1C(F)(F)F [compound 1, (R)-5-(6-((4-methylpiperazin-1-yl)methyl)-1H-benzo[d]imidazol-1-yl)-3-(1-(2-(trifluoromethyl)phenyl)-ethoxy)thiophene-2-carboxamide]
effect on CDK1 phosphorylation (phospho-CDK1 (Tyr15)): no effect

CC(=O)NCC(=O)N1[C@@H]2CC[C@H]1c1ccc(Nc3ncc(C(F)(F)F)c(NC4CCC4)n3)cc12 [compound 2]
binding potential for Myt1 (in words) (Myt1-KD): no binding potential
